14 compounds from patent publication US9932340B2, “Substituted indoles” (AbbVie Inc., priority 2014, dated 2018) can be followed below.

Chain of SUV420H1 enzyme (Q4FZB7 whole entry): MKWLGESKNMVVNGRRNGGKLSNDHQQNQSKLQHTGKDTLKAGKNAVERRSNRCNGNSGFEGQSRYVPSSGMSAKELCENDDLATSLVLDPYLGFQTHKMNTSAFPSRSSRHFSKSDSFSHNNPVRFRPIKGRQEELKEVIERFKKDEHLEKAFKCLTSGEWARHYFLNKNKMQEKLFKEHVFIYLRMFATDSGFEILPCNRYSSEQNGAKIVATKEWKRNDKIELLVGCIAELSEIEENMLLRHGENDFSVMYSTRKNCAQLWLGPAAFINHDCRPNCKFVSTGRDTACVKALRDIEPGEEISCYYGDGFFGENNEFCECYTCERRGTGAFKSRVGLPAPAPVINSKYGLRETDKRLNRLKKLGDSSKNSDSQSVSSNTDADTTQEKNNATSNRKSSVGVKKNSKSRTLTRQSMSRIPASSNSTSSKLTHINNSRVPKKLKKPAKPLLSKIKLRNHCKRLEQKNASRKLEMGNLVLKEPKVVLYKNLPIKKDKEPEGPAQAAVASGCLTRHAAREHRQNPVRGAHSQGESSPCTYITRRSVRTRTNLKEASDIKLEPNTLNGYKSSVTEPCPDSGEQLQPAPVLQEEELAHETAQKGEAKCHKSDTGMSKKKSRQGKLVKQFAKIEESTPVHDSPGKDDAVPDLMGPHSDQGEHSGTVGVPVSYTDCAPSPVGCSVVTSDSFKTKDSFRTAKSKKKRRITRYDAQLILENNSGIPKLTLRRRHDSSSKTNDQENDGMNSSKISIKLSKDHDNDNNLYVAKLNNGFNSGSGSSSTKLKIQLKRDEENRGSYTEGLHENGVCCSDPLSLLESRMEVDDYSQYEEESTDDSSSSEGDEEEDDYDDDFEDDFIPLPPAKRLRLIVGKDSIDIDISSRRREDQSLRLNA

This experiment deals with SUV420H1 enzyme (Homo sapiens, UniProt Q4FZB7). As to the kind of experiment: TR-FRET SAH SUV420H1 enzyme inhibition assay. In kind it is biochemical. As to conditions: Histone Peptide H4(8-30)me1 and SAM, overnight at room temp, TR-FRET detection of SAH, read-out: TR-FRET SAH_SUV420H1 IC50. The protocol:
Test compounds were dispensed by a Labcyte Echo in 384-well low volume assay plates with 3-fold serial dilutions from 50 μM to 0.00075 μM. 5 μL of SUV420H1 enzyme (Abbvie) at 90 nM was added to all wells except the no enzyme control wells, and incubated for 30 minutes at room temp before 5 μL of Histone Peptide H4(8-30)me1 (Anaspec) at 5 nM and SAM at 4 nM was added to all wells. The plates were incubated in a humidified chamber overnight at room temp and then 10 μL of the detection reagent that contained RIPA buffer (50 mM Tris-HCl, pH 8.0, 150 mM sodium chloride, 1.0% Igepal CA-630 (NP-40), 0.5% sodium deoxycholate and 0.1% sodium dodecyl sulfate) (Sigma) with 2 nM of Terbium chelate anti S-adenosyl-L-homocysteine (SAH) (Abbvie) antibody and Oregon Green labeled SAH at 4 nM was added. The plates were further incubated for 4 hours at room temperature. The plates were read in a Perkin Elmer Envision using a TR-FRET protocol with Excitation set at 335 nm and Emission at 520 and 495 nm. To generate dose response curves the data is normalized to percent inhibition by setting the average of the plus and minus enzyme control wells to 0% and 100% inhibition respectively. The IC50 values for the compounds are generated by fitting the normalized data with Accelrys Assay Explorer 3.3 to a sigmoidal curve model using […] regression, Y=(100*x^n)/(K^n+x^n), where Y is the measured response, x is the compound concentration, n is the Hill Slope and K is the IC50 and the lower and higher asymptotes are constrained to 0 and 100 respectively.
On the technique in general: TR-FRET usually uses a lanthanide donor and a delayed reading to cut background.
Broadly, the IC50 is the point on the concentration scale where inhibition reaches its midpoint. In the case of `CS(=O)(=O)c1ccc(-c2cc(Cn3cnc4c(N)ncnc43)c3[nH]c(CN)cc3c2)cc1` [Example 37, 9-({2-(aminomethyl)-5-[4-(methylsulfonyl)phenyl]-1H-indol-7-yl}methyl)-9H-purin-6-amine], the IC50 came out at 0.321 µM.
As to `Nc1ncnc2c1ncn2Cc1cc(Cl)cc2cc(CNC(=O)c3ccc4occc4c3)[nH]c12` [Example 355, N-({7-[(6-amino-9H-purin-9-yl)methyl]-5-chloro-1H-indol-2-yl}methyl)-1-benzofuran-5-carboxamide], the IC50 stood at 4.87 µM.
For `Cc1[nH]c2ccc(C(=O)NCc3cc4cc(Cl)cc(Cn5cnc6c(N)ncnc65)c4[nH]3)cc2c1C` [Example 375, N-({7-[(6-amino-9H-purin-9-yl)methyl]-5-chloro-1H-indol-2-yl}methyl)-2,3-dimethyl-1H-indole-5-carboxamide] the value was 12.4 µM; for `Cc1cc(C(=O)NCc2cc3cc(Cl)cc(Cn4cnc5c(N)ncnc54)c3[nH]2)nn1C` [Example 182, N-({7-[(6-amino-9H-purin-9-yl)methyl]-5-chloro-1H-indol-2-yl}methyl)-1,5-dimethyl-1H-pyrazole-3-carboxamide], 5.2 µM.
`NCc1cc2c(-c3ccccc3Cl)ccc(Cn3cnc4c(N)ncnc43)c2[nH]1` [Example 72, 9-{[2-(aminomethyl)-4-(2-chlorophenyl)-1H-indol-7-yl]methyl}-9H-purin-6-amine]: the IC50 came out at 1.81 µM.
On to `NCc1cc2cc(-c3cccc(C(N)=O)c3)cc(Cn3cnc4c(N)ncnc43)c2[nH]1` [Example 40, 3-{2-(aminomethyl)-7-[(6-amino-9H-purin-9-yl)methyl]-1H-indol-5-yl}benzamide], for which the IC50 came to 0.425 µM.
For `Nc1ncnc2c1ncn2Cc1cc(Cl)cc2cc(CNC(=O)c3cccc(F)c3)[nH]c12` [Example 224, N-({7-[(6-amino-9H-purin-9-yl)methyl]-5-chloro-1H-indol-2-yl}methyl)-3-fluorobenzamide] the value was 2.77 µM; for `Cn1ccnc1-c1ccccc1C(=O)NCc1cc2cc(Cl)cc(Cn3cnc4c(N)ncnc43)c2[nH]1` [Example 327, N-({7-[(6-amino-9H-purin-9-yl)methyl]-5-chloro-1H-indol-2-yl}methyl)-2-(1-methyl-1H-imidazol-2-yl)benzamide], 5.28 µM; for `Cc1scnc1C(=O)NCc1cc2cc(Cl)cc(Cn3cnc4c(N)ncnc43)c2[nH]1` [Example 147, N-({7-[(6-amino-9H-purin-9-yl)methyl]-5-chloro-1H-indol-2-yl}methyl)-5-methyl-1,3-thiazole-4-carboxamide], 5.79 µM.
Turning to `Nc1ncnc2c1ncn2Cc1cc(Cl)cc2cc(CNCc3c(F)cccc3Cl)[nH]c12` [Example 215, 9-[(5-chloro-2-{[(2-chloro-6-fluorobenzyl)amino]methyl}-1H-indol-7-yl)methyl]-9H-purin-6-amine], the IC50 is 3.91 µM.
For `Nc1ncnc2c1ncn2Cc1cc(Cl)cc2cc(CNC(=O)c3ccccc3C(=O)N3CCCC3)[nH]c12` [Example 320, N-({7-[(6-amino-9H-purin-9-yl)methyl]-5-chloro-1H-indol-2-yl}methyl)-2-(pyrrolidin-1-ylcarbonyl)benzamide] the value was 8.03 µM.
Take `Nc1ncnc2c1ncn2Cc1cc(Cl)cc2cc(CNC(=O)[C@H]3CCCN3)[nH]c12` [Example 116, (2R)—N-({7-[(6-amino-9H-purin-9-yl)methyl]-5-chloro-1H-indol-2-yl}methyl)pyrrolidine-2-carboxamide]: the IC50 amounted to 8.28 µM.
`CC(C)n1ncc2cc(C(=O)NCc3cc4cc(Cl)cc(Cn5cnc6c(N)ncnc65)c4[nH]3)cnc21` [Example 372, N-({7-[(6-amino-9H-purin-9-yl)methyl]-5-chloro-1H-indol-2-yl}methyl)-1-(propan-2-yl)-1H-pyrazolo[3,4-b]pyridine-5-carboxamide]: the IC50 was 0.97 µM.
For `COc1cccc(-c2ccc(Cn3cnc4c(N)ncnc43)c3[nH]c(CN)cc23)c1` [Example 79, 9-{[2-(aminomethyl)-4-(3-methoxyphenyl)-1H-indol-7-yl]methyl}-9H-purin-6-amine], the IC50 was 0.548 µM.
